Data from article PMC8234462, “Novel Cyclophilin Inhibitor Decreases Cell Proliferation and Tumor Growth in Models of Hepatocellular Carcinoma” (Cancers, 2021).
Where two headings read alike, the source gives them in different places.

Legend:
[1] = set-up: method as in PMID 31717385; conditions: cited from earlier work
[2] = test system: iPS cardiomyocytes; test: Cytotoxicity, CellTiter Glo; format: cell-based; conditions: Homo sapiens, Cardiomyocyte, 72 h, 3 days of treatment, read-out: IC50 (50% reduction in cell viability)
Procedure: The evaluation of the off-target effects of NV651 was performed by ImQuest BioSciences Inc. (Frederick, MD, USA) by analyzing the cytotoxicity in a panel of primary cells. NV651 was evaluated at a concentration of 30 µM and five serial half-logarithmic dilutions in triplicate. The positive control compounds for each cell type were purchased from Sigma-Aldrich (St. Louis, MO, USA) and were as follows: Unstimulated human peripheral blood mononuclear cells (PBMCs), phytohemagglutinin (PHA)-stimulated PBMCs, monocytes/macrophages, dendritic cells, hepatocytes, induced pluripotent stem cell (iPS) neurons: […] AZT, kidney cells (RPTEC): cisplatin and iPS cardiomyocytes: Doxazosin. iPS cardiomyocytes (Cellular Dynamics, Madison, WI, USA) were seeded in a 96-well plate precoated with 0.1% gelatin (Sigma-Aldrich, St. Louis, MO, USA) in a plating medium (Cellular dynamics, Madison, WI, USA) at a concentration of 1.5 × 10^4 cells/well. After 48 h of incubation, cells were washed, and NV651 diluted in the maintenance medium (Cellular Dynamics, Madison, WI, USA) was added. After 3 days of incubation, cell viability was measured with CellTiter Glo (Promega, Madison, WI, USA). CellTiter Glo was performed to evaluate cell viability. CellTiter Glo Luminescent Cell Viability Assay (Promega, Madison, WI, USA) was performed according to the manufacturer’s instructions.

[3] = Pharmacokinetics IV and PO; format: in vivo; conditions: male, CD1, mouse, blood, mice; for Tmax: read-out: time of peak concentration in blood (converted)
Procedure: These experiments were performed by Shanghai ChemPartner Co., Ltd. (Shanghai, China) following the guidance described above.
Thirty microliters of blood or liver samples were mixed with 100-µL Pierce Acetonitrile (ACN, Thermo Fisher Scientific, Waltham, MA, USA) containing 20-ng/mL IS (702) used as the internal standard. An aliquot of 10-µL supernatant was injected for LC-MS/MS analysis using LCMSMS-003 (API4000).
NV651 was prepared as described above. Six- to eight-week-old male mice were treated IV with 0.5 mg/kg or PO with 5 mg/kg, with 3 mice per group. Blood and plasma samples were taken pre-dose; at 5 min of treatment and at 1, 2, 4, 8 or 24 h. Analysis was performed as indicated above.

[4] = test system: Dendritic cells; test: Cytotoxicity, CellTiter Glo; format: cell-based; conditions: Homo sapiens, Dendritic cell, 168 h, 7 days of treatment, read-out: IC50 (50% reduction in cell viability)
Procedure: The evaluation of the off-target effects of NV651 was performed by ImQuest BioSciences Inc. (Frederick, MD, USA) by analyzing the cytotoxicity in a panel of primary cells. NV651 was evaluated at a concentration of 30 µM and five serial half-logarithmic dilutions in triplicate. The positive control compounds for each cell type were purchased from Sigma-Aldrich (St. Louis, MO, USA) and were as follows: Unstimulated human peripheral blood mononuclear cells (PBMCs), phytohemagglutinin (PHA)-stimulated PBMCs, monocytes/macrophages, dendritic cells, hepatocytes, induced pluripotent stem cell (iPS) neurons: […] AZT, kidney cells (RPTEC): cisplatin and iPS cardiomyocytes: Doxazosin. The isolation was based on Nair, Archer. Briefly, freshly separated PBMCs from one donor were suspended in DPBS at 4 × 10^6 cells per mL and cultured in a T-75 flask. Cells were incubated for 30 min and then washed 5–7 times with DPBS to remove nonadherent cells. Cells were cultured in RPMI 1640 supplemented with 10% FBS, 2-mM L-glutamine, 25-mM HEPES, […], 100-µg/mL streptomycin, 50-ng/mL rhGM-CSF and 50-ng/mL rhIL-4 and incubated for 7 days. After the incubation period, cells were cultured in the same media with the addition of LPS (10 ng/mL) for two days. […]

[5] = test system: HEPG2; test: Mitochondrial membrane potential (DiOC(6)3) and PI fluorocytometry; format: cell-based, human; conditions: 72 h, 20, 50 or 100 nM
Procedure: (§1) HEPG2 and HUH7 cells were seeded at 1.5 × 10^5 cells/well and 1 × 10^5 cells/well, respectively, 24 h prior to treatment. After 72 h of treatment (0, 20, 50 or 100 nM of NV651), supernatant and trypsinized cells were collected and stained with propidium iodide (PI) (Thermo Fisher Scientific, Waltham, MA, USA) at a concentration of 1 μg/mL to evaluate the plasma membrane integrity; due to the lack of cell permeability, only dead cells are able to incorporate it. In addition, changes in the mitochondrial membrane potential were evaluated by 3,3′-dihexyloxacarbocyanine iodide (DiOC(6)3)(Molecular Probes–Invitrogen, Waltham, MA, USA) staining at a concentration of 40 nM.
(§2) Data was acquired with FACSverse Instrument and analyzed with FCS Express 6 Flow Research.

[6] = test system: HUH7; test: as above; format: cell-based, human; conditions: 72 h, 20, 50 or 100 nM
Procedure: as §1, §2

[7] = test system: Bone marrow progenitors; test: Cytotoxicity, colony formation; format: cell-based, human; conditions: Homo sapiens, 336 h, 14 days of treatment, colonies counted
Procedure: The evaluation of the off-target effects of NV651 was performed by ImQuest BioSciences Inc. (Frederick, MD, USA) by analyzing the cytotoxicity in a panel of primary cells. NV651 was evaluated at a concentration of 30 µM and five serial half-logarithmic dilutions in triplicate. The positive control compounds for each cell type were purchased from Sigma-Aldrich (St. Louis, MO, USA) and were as follows: Unstimulated human peripheral blood mononuclear cells (PBMCs), phytohemagglutinin (PHA)-stimulated PBMCs, monocytes/macrophages, dendritic cells, hepatocytes, induced pluripotent stem cell (iPS) neurons: […] AZT, kidney cells (RPTEC): cisplatin and iPS cardiomyocytes: Doxazosin. Bone marrow progenitor cells (Invitrogen, Waltham, MA, USA) were suspended in cell culture medium (Iscove-modified Dulbecco medium) containing 15% FBS, 10% giant tumor-conditioned medium (Bone Marrow Plus, Sigma-Aldrich, St. […] Cells (1 × 10^5 cells/well) were seeded in 6-well plates containing NV651 in triplicate. Cells were incubated for 14 days, and colonies (more than 30 cells) were counted.

## CC(=O)CCC1C(=O)NC(C(C)C)C(=O)NC(Cc2cc(O)cc(F)c2)C(=O)N2CCCC(N2)C(=O)OC(C(C)=CC=CC(=O)OC(C)(C)C)CC=CC=CC(O)C(C)C1O (stereo not drawn) [NV651]
[1]
  immunosuppressant activity: no immunosuppressant activity
[2]
  IC50: > 30 µM
[3]; 0.5 mg/kg IV vs 5 mg/kg PO
  bioavailability: 2%
[3]; 0.5 mg/kg IV
  Tmax: ~5 min
[3]; 5 mg/kg PO
  Tmax: ~60 min
[4]
  IC50: 24.2 µM
[5]
  changes in mitochondrial membrane potential (DiOC6(3)) and plasma membrane integrity (PI): did not show any significant differences
[6]
  changes in mitochondrial membrane potential (DiOC6(3)) and plasma membrane integrity (PI): did not show any significant differences
[7]
  IC50: > 30 µM
